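Step 1: Grow cells in 96-well plates. Step 2: Expose to compound for 48 hours at 5 concentrations. Step 3: Interpolate endpoints linearly; if unreached, use highest concentration. GI50 is the concentration that inhibits growth by half.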 Activity calls are given as the source filed them. Rule as the data show it: active = GI50 up to about 1.1 µM and inactive = higher.
Assays:
Experiment in all cases: inhibition of tumour cell growth, NCI panel, 48 h
CAKI-1 = test system: CAKI-1
Hs-578T = test system: Hs-578T
SK-MEL-5 = test system: SK-MEL-5
786-0 = test system: 786-0
PC-3 = test system: PC-3
MDA-N = test system: MDA-N
OVCAR-3 = test system: OVCAR-3
RXF 393 = test system: RXF 393
A498 = test system: A498
HT-29 = test system: HT-29
BT-549 = test system: BT-549
MOLT-4 = test system: MOLT-4
MDA-MB-231 = test system: MDA-MB-231
HOP-92 = test system: HOP-92
OVCAR-5 = test system: OVCAR-5
NCI/ADR-RES = test system: NCI/ADR-RES
SR = test system: SR
RPMI-8226 = test system: RPMI-8226

COC(=O)c1sc(=O)sc1SCc1cccc(CSc2sc(=O)sc2C(=O)OC)c1
GI50 (CAKI-1): 28.4 µM (inactive) | GI50 (Hs-578T): 57.1 µM (inactive) | GI50 (SK-MEL-5): > 100 µM (inactive) | GI50 (786-0): 17.6 µM (inactive) | GI50 (PC-3): 29.2 µM (inactive) | GI50 (MDA-N): 68.9 µM (inactive) | GI50 (OVCAR-3): 23.9 µM (inactive) | GI50 (RXF 393): 26 µM (inactive) | GI50 (A498): 36.1 µM (inactive) | GI50 (HT-29): > 100 µM (inactive) | GI50 (BT-549): 36.4 µM (inactive) | GI50 (MOLT-4): 47.6 µM (inactive) | GI50 (MDA-MB-231): 24.9 µM (inactive) | GI50 (HOP-92): 24.2 µM (inactive) | GI50 (OVCAR-5): > 100 µM (inactive) | GI50 (NCI/ADR-RES): 62.4 µM (inactive)

CC1(C)OCC(/C=C\C(O)CC2(C)OCCO2)CO1 (centres undefined)
GI50 (CAKI-1): > 100 µM (inactive) | GI50 (Hs-578T): > 100 µM (inactive) | GI50 (SK-MEL-5): > 100 µM (inactive) | GI50 (SR): > 100 µM (inactive) | GI50 (RPMI-8226): > 100 µM (inactive) | GI50 (786-0): > 100 µM (inactive) | GI50 (PC-3): > 100 µM (inactive) | GI50 (MDA-N): > 100 µM (inactive) | GI50 (OVCAR-3): > 100 µM (inactive) | GI50 (A498): > 100 µM (inactive) | GI50 (HT-29): > 100 µM (inactive) | GI50 (BT-549): > 100 µM (inactive) | GI50 (MOLT-4): > 100 µM (inactive) | GI50 (MDA-MB-231): > 100 µM (inactive) | GI50 (HOP-92): > 100 µM (inactive) | GI50 (OVCAR-5): > 100 µM (inactive) | GI50 (NCI/ADR-RES): > 100 µM (inactive)

OCC(O)COCn1nncc1Cn1ncc2c(SCc3ccccc3)ncnc21 (centres undefined)
GI50 (CAKI-1): > 100 µM (inactive) | GI50 (Hs-578T): 0.203 µM (active) | GI50 (SK-MEL-5): > 100 µM (inactive) | GI50 (786-0): > 100 µM (inactive) | GI50 (PC-3): > 100 µM (inactive) | GI50 (MDA-N): > 100 µM (inactive) | GI50 (OVCAR-3): > 100 µM (inactive) | GI50 (A498): > 100 µM (inactive) | GI50 (HT-29): > 100 µM (inactive) | GI50 (BT-549): > 100 µM (inactive) | GI50 (MDA-MB-231): > 100 µM (inactive) | GI50 (OVCAR-5): > 100 µM (inactive) | GI50 (NCI/ADR-RES): > 100 µM (inactive)

C[C@H](CC[C@@H](O)C(C)(C)O)[C@H]1CC[C@@]2(C)[C@@H]3CC=C4[C@@H](CC[C@H](O)C4(C)C)[C@]3(C)C(=O)C[C@]12C [BRYODULCOSIGENIN]
GI50 (Hs-578T): 45.7 µM (inactive) | GI50 (SK-MEL-5): 24.7 µM (inactive) | GI50 (SR): 23.1 µM (inactive) | GI50 (RPMI-8226): 13.3 µM (inactive) | GI50 (786-0): 38.3 µM (inactive) | GI50 (PC-3): 13.7 µM (inactive) | GI50 (MDA-N): 22.9 µM (inactive) | GI50 (OVCAR-3): > 50 µM (inactive) | GI50 (A498): > 50 µM (inactive) | GI50 (HT-29): 10.8 µM (inactive) | GI50 (BT-549): 23.6 µM (inactive) | GI50 (MOLT-4): 19.5 µM (inactive) | GI50 (MDA-MB-231): > 50 µM (inactive) | GI50 (OVCAR-5): 16.8 µM (inactive) | GI50 (NCI/ADR-RES): 14.7 µM (inactive)

O=[N+]([O-])c1ccc(CN(CCCl)OCCCl)cc1
GI50 (CAKI-1): 64.9 µM (inactive) | GI50 (Hs-578T): > 100 µM (inactive) | GI50 (SK-MEL-5): 51.3 µM (inactive) | GI50 (SR): 65 µM (inactive) | GI50 (RPMI-8226): 98.6 µM (inactive) | GI50 (786-0): > 100 µM (inactive) | GI50 (PC-3): 26.8 µM (inactive) | GI50 (MDA-N): > 100 µM (inactive) | GI50 (OVCAR-3): > 100 µM (inactive) | GI50 (RXF 393): > 100 µM (inactive) | GI50 (HT-29): > 100 µM (inactive) | GI50 (BT-549): > 100 µM (inactive) | GI50 (MOLT-4): 20.9 µM (inactive) | GI50 (MDA-MB-231): > 100 µM (inactive) | GI50 (OVCAR-5): > 100 µM (inactive) | GI50 (NCI/ADR-RES): > 100 µM (inactive)

O=C(O)C(=Cc1ccc(-c2ccc([N+](=O)[O-])cc2)o1)C(=O)O
GI50 (CAKI-1): > 100 µM (inactive) | GI50 (Hs-578T): > 100 µM (inactive) | GI50 (SK-MEL-5): > 100 µM (inactive) | GI50 (SR): > 100 µM (inactive) | GI50 (RPMI-8226): > 100 µM (inactive) | GI50 (786-0): > 100 µM (inactive) | GI50 (PC-3): > 100 µM (inactive) | GI50 (MDA-N): > 100 µM (inactive) | GI50 (OVCAR-3): > 100 µM (inactive) | GI50 (RXF 393): > 100 µM (inactive) | GI50 (A498): > 100 µM (inactive) | GI50 (HT-29): > 100 µM (inactive) | GI50 (BT-549): > 100 µM (inactive) | GI50 (MOLT-4): > 100 µM (inactive) | GI50 (MDA-MB-231): > 100 µM (inactive) | GI50 (OVCAR-5): > 100 µM (inactive) | GI50 (NCI/ADR-RES): > 100 µM (inactive)
